14 molecules from US8871753B2, “Macrocyclic compounds and their use as kinase inhibitors” (Incyte Corporation, priority 2008, dated 2014) can be followed below.

What is called IC50 is the concentration that gives 50% inhibition.

Common to all, as to assay type: biochemical
Assay [1] concerns the target T1, human JAK1 (a.a. 837-1142) (Homo sapiens, UniProt P23458).
T1 construct: human JAK1 (a.a. 837-1142); His tag (N); made in house; host or cells: insect cells (baculovirus)
Put plainly: In vitro JAK kinase assay (HTRF, phosphorylation of a biotinylated peptide), JAK1. As to conditions: read-out: JAK1 IC50. Put shortly:
(§1)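 Phosphorylation of a biotinylated peptide by the JAK kinase domain, detected by HTRF with Eu-Py20 and SA-APC. ATP was 90 μM for JAK1, 30 μM for JAK2 and 3 μM for JAK3. Reactions ran 1 h at room temperature and were stopped with EDTA, followed by 40 min antibody binding.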
A general note: TR-FRET usually uses a lanthanide donor and a delayed reading to cut background.

For assay [2], the target named is T2, human JAK2 (a.a. 828-1132) (Homo sapiens, UniProt O60674).
T2 construct: JAK2 (a.a. 828-1132); His tag (N); made in house; host or cells: insect cells (baculovirus)
The assay can be described thus: In vitro JAK kinase assay (HTRF, phosphorylation of a biotinylated peptide), JAK2. The procedure, abridged: as §1

Assay [3] has as its target T3, human JAK3 (a.a. 781-1124) (Homo sapiens, UniProt P52333).
T3 construct: JAK3 (a.a. 781-1124); His tag (N); made in house; host or cells: insect cells (baculovirus)
The assay can be described thus: In vitro JAK kinase assay (HTRF, phosphorylation of a biotinylated peptide), JAK3. The procedure, abridged: as §1

For a further assay, the target named is TYK2 (Homo sapiens, UniProt P29597). The assay can be described thus: TYK2 kinase inhibition (Table A1).
Assay [4] addresses T4, Recombinant Human Anaplastic Lymphoma Kinase (Homo sapiens, UniProt Q9UM73).
T4 construct: purchased Invitrogen, Carlsbad, Calif
The assay can be described thus: ALK HTRF kinase assay. Put shortly:
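Recombinant human ALK phosphorylated a biotinylated synthetic peptide. Phosphotyrosine was detected by TR-FRET between a Eu-labelled anti-phosphotyrosine antibody and streptavidin-allophycocyanin. IC50 values came from fitting signal against inhibitor concentration to a four-parameter logistic equation with variable Hill slope.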

[5] abbreviates: Table B1, cells without percent sign.
The mark [6] stands for this setting: method AA1 (90 μM ATP) or AA2 (1000 μM ATP), not stated per value.
Setting [7] is: method AA1 (30 μM ATP) or AA2 (1000 μM ATP), not stated per value.
Where [8] appears, read: method AA1 (3 μM ATP) or AA2 (1000 μM ATP), not stated per value.
The mark [9] stands for this setting: compound at 500 nM or 1 mM, 90 μM ATP.
[10] abbreviates: percentage inhibition of the example compound at a concentration of 500 nM or 1 mM (not specified which).
The mark [11] stands for this setting: compound at a concentration of 500 nM or 1 mM (not specified), cells shown as percentage.

Structures can show the parent of a compound that is named as a salt. Where two headings read alike, the source gives them in different places.

T2 sequence (O60674 828-1132): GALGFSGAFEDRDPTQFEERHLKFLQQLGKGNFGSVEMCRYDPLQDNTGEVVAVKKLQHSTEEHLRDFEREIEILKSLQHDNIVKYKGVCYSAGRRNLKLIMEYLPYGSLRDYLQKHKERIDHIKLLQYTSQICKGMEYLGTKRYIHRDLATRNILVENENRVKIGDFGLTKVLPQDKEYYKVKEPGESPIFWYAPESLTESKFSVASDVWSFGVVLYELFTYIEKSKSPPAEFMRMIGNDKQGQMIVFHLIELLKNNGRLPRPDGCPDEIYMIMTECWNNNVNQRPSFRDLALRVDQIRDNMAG
T4 sequence (Q9UM73 19-1620): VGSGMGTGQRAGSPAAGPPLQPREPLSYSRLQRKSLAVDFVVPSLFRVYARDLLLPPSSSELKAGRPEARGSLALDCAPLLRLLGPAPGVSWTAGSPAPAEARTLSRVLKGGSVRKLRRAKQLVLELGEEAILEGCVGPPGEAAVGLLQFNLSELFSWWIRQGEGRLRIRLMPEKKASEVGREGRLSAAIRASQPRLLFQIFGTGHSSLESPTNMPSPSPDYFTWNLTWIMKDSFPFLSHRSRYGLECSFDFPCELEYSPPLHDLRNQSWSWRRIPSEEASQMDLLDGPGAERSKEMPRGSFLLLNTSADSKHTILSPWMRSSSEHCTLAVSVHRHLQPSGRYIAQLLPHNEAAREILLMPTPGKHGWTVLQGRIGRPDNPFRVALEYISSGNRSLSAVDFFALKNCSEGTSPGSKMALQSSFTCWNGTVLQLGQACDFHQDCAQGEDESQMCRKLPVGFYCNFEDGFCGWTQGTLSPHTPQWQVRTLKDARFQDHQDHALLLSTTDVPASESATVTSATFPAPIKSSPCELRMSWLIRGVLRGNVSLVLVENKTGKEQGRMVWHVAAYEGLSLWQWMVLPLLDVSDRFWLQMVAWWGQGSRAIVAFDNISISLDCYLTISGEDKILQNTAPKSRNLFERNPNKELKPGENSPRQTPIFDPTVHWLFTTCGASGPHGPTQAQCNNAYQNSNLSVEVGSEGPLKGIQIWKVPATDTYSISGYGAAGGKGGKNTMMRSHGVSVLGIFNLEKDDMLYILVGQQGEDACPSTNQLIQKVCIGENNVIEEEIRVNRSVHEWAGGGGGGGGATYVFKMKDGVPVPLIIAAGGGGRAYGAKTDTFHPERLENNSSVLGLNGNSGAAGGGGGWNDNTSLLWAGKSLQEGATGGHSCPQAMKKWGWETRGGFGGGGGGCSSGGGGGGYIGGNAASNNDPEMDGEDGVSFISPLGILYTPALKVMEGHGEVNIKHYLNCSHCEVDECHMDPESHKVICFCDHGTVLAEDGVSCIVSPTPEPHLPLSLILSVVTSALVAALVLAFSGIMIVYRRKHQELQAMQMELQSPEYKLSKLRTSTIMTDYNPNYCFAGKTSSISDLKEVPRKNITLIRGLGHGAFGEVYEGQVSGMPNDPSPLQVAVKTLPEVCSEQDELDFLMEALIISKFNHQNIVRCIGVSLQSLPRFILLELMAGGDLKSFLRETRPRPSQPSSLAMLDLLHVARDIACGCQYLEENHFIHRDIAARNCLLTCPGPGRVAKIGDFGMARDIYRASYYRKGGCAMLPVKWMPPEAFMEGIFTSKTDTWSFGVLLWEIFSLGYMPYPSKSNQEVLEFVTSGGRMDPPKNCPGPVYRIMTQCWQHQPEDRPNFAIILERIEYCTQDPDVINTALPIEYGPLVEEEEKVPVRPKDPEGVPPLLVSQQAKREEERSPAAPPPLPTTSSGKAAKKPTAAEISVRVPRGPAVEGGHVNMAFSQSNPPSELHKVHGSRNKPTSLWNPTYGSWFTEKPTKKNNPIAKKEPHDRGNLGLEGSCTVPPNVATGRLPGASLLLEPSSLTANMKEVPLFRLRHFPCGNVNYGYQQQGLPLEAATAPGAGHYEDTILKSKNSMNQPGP
Chain of TYK2 (P29597 whole entry): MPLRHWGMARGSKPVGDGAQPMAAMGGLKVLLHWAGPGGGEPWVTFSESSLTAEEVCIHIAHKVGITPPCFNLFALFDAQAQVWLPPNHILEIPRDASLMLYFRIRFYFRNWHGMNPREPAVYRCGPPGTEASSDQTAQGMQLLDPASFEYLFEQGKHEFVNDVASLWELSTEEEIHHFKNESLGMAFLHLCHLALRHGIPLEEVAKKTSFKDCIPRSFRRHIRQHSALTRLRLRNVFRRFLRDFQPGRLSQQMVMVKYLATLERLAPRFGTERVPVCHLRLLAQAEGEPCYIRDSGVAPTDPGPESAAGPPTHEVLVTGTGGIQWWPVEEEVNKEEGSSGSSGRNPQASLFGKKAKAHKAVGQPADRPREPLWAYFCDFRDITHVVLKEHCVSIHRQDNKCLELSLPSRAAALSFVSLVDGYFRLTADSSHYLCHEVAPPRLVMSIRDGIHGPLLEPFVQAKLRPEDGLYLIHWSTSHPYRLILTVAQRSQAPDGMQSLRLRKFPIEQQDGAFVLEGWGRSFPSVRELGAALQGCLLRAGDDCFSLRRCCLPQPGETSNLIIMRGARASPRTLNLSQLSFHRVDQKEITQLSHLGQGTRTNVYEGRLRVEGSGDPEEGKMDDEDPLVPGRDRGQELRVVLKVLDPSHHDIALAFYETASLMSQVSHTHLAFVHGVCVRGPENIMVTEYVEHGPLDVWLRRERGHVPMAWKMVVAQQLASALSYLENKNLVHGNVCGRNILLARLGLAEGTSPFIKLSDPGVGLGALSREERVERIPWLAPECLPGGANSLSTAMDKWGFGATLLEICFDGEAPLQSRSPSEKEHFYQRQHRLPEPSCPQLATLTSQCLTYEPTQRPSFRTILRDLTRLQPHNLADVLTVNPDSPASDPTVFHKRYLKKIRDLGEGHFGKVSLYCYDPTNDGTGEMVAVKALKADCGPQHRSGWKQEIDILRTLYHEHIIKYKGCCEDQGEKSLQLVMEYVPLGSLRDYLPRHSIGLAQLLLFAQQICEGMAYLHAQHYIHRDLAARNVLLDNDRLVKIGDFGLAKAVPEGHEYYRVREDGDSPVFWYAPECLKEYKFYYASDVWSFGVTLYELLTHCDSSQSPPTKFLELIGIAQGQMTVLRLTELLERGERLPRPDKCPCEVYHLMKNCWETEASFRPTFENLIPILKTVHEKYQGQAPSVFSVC
T1 sequence (P23458 849-1154): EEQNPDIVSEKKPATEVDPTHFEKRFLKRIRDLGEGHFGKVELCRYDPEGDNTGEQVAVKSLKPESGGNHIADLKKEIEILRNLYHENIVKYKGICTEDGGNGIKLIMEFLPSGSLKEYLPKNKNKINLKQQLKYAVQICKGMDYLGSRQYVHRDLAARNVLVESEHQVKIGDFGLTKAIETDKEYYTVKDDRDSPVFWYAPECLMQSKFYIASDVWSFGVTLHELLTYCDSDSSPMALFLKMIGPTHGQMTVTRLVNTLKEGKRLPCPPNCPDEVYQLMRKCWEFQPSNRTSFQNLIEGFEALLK
T3 sequence (P52333 781-1124): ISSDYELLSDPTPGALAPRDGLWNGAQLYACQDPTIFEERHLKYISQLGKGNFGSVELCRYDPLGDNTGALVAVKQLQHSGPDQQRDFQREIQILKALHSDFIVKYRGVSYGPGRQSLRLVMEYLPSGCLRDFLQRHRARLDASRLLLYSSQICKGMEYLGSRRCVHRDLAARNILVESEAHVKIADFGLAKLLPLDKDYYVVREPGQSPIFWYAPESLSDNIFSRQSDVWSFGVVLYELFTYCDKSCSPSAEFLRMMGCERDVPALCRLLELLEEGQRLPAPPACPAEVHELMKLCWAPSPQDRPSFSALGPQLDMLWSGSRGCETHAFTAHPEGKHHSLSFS

For the molecule `Fc1ccc(CN2CCN(Cc3cc4cc(c3)Nc3nc(ncc3Cl)Nc3cccc(c3)CC4)CC2)cc1` [Example B192, 6-Chloro-11-{[4-(4-fluorobenzyl)piperazin-1-yl]methyl}-2,4,8,22-tetraazatetracyclo[14.3.1.1(3,7).1(9,13)]docosa-1(20),3(22),4,6,9(21),10,12,16,18-nonaene tris(trifluoroacetate)], the IC50 in assay [1] (Table B1) was 21 nM; in assay [2] (Table B1) it was 23 nM; in assay [3] (Table B1) it was 308 nM; against TYK2 (Table B1), 341 nM; in assay [4] (setting [5]) it was > 1000 nM.
On the same counts, the results for `Cc1ccccc1C(=O)Nc1ccc2cc1CCc1cccc(c1)Nc1ncc(Cl)c(n1)N2` [Example B35, N-[6-Chloro-2,4,8,22-tetraazatetracyclo[14.3.1.1(3,7).1(9,13)]docosa-1(20), 3(22),4,6,9(21),10,12,16,18-nonaen-12-yl]-2-methylbenzamide trifluoroacetate] are 0.6 nM, 0.35 nM, 1.4 nM, 1.3 nM and 76 nM.
For `N#Cc1ccc(S(=O)(=O)N2CCC(CC(=O)Nc3ccc4cc3CCc3cccc(c3)Nc3ncc(Cl)c(n3)N4)CC2)cc1` [Example A209, N-[6-Chloro-2,4,8,22-tetraazatetracyclo[14.3.1.1(3,7).1(9,13)]docosa-1(20),3(22),4,6,9(21),10,12,16,18-nonaen-12-yl]-2-{1-[(4-cyanophenyl)sulfonyl]piperidin-4-yl}acetamide trifluoroacetate], the IC50 in assay [1] (setting [6]) was 60 nM; in assay [2] (setting [7]), 120 nM; in assay [3] (setting [8]), > 200 nM; on TYK2 it was > 200 nM. Moreover, the “ALK % of inhibition at a concentration of 500 nM or 1 mM” value (“ALK % of inhibition” for short) in assay [4] (setting [9]) is given as 19%.
Turning to `O=C(NCc1ccccc1)N1CCN(c2cc(-c3cc4cc(c3)Nc3ncc(Cl)c(n3)Nc3cccc(c3)OCC4)ccn2)CC1` [Example D45, N-Benzyl-4-{4-[6-chloro-14-oxa-2,4,8,23-tetraazatetracyclo[15.3.1.1(3,7).1(9,13)]tricosa-1(21),3(23),4,6,9(22),10,12,17,19-nonaen-19-yl]pyridin-2-yl}piperazine-1-carboxamide bis(trifluoroacetate)], the IC50 was determined as 8.1 nM in assay [1] (Table D1); 3 nM in assay [2] (Table D1); 36 nM in assay [3] (Table D1); 13 nM at TYK2 (Table D1); 340 nM in assay [4] (Table D1, 90 μM ATP).
For the molecule `O=C(CC1CCN(c2ccccn2)CC1)Nc1ccc2cc1CCc1cncc(c1)Nc1ncc(Cl)c(n1)N2` [Example A170, N-[6-Chloro-2,4,8,18,22-pentaazatetracyclo[14.3.1.1(3,7).1(9,13)]docosa-1(20),3(22),4,6,9(21),10,12,16,18-nonaen-12-yl]-2-(1-pyridin-2-ylpiperidin-4-yl)acetamide tris(trifluoroacetate)], the IC50 is 7.8 nM in assay [1] (setting [6]), 165 nM in assay [2] (setting [7]), > 1000 nM in assay [3] (setting [8]) and 250 nM at TYK2. Further, the “ALK % of inhibition” value in assay [4] (setting [9]) was 37%.
Consider `Cc1cc(C(=O)N2CCC(CC(=O)Nc3ccc4cc3CCc3cncc(c3)Nc3ncc(Cl)c(n3)N4)CC2)n[nH]1` [Example A163, N-[6-Chloro-2,4,8,18,22-pentaazatetracyclo[14.3.1.1(3,7).1(9,13)]docosa-1(20),3(22),4,6,9(21),10,12,16,18-nonaen-12-yl]-2-{1-[(5-methyl-1H-pyrazol-3-yl)carbonyl]piperidin-4-yl}acetamide bis(trifluoroacetate)], for which the IC50 in assay [1] (setting [6]) is 0.5 nM; in assay [2] (setting [7]), 36 nM; in assay [3] (setting [8]), > 100 nM; at TYK2, 3 nM. Further, the “ALK % of inhibition” value in assay [4] (setting [9]) is 29%.
On to `CC(=O)N1CCC(CN(C)Cc2ccc3cc2CCc2cncc(c2)Nc2ncc(Cl)c(n2)N3)CC1` [Example B346, 1-(1-Acetylpiperidin-4-yl)-N-{[6-chloro-2,4,8,18,22-pentaazatetracyclo[14.3.1.1(3,7).1(9,13)]docosa-1(20),3(22),4,6,9(21),10,12,16,18-nonaen-12-yl]methyl}-N-methylmethanamine tris(trifluoroacetate)], for which the IC50 in assay [1] (Table B1) was 13 nM; in assay [2] (Table B1), 91 nM; in assay [3] (Table B1), > 400 nM; on TYK2 (Table B1), > 400 nM. Besides, the “ALK % of inhibition” value in assay [4] (setting [10]) is 38%.
Take `CCC(C)C(=O)Nc1ccc2cc1CCc1cccc(c1)Nc1ncc(Cl)c(n1)N2` (stereo not shown) [Example B61, N-[6-Chloro-2,4,8,22-tetraazatetracyclo[14.3.1.1(3,7).1(9,13)]docosa-1(20), 3(22),4,6,9(21),10,12,16,18-nonaen-12-yl]-2-methylbutanamide trifluoroacetate]: the IC50 in assay [1] (Table B1) worked out at 19 nM; in assay [2] (Table B1), 1.4 nM; in assay [3] (Table B1), 3 nM; against TYK2 (Table B1), 34 nM; in assay [4] (setting [5]), 680 nM.
With `O=C(Nc1ccc2cc1CCc1cccc(c1)Nc1ncc(Cl)c(n1)N2)N[C@H]1CCN(C(=O)C2CC2)C1` [Example B228, N-[6-Chloro-2,4,8,22-tetraazatetracyclo[14.3.1.1(3,7).1(9,13)]docosa-1(20),3(22),4,6,9(21),10,12,16,18-nonaen-12-yl]-N′-[(3S)-1-(cyclopropylcarbonyl)pyrrolidin-3-yl]urea trifluoroacetate], the IC50 was determined as 6 nM in assay [1] (Table B1), 11 nM in assay [2] (Table B1), 63 nM in assay [3] (Table B1) and 19 nM against TYK2 (Table B1). In addition, the “ALK % of inhibition” value in assay [4] (setting [11]) turned out to be 10%.
As for `O=C(Nc1ccc2cc1CCc1cccc(c1)Nc1ncc(Cl)c(n1)N2)[C@@H]1CCCN1` [Example A110, (2S)—N-[6-Chloro-2,4,8,22-tetraazatetracyclo[14.3.1.1(3,7).1(9,13)]docosa-1(20),3(22),4,6,9(21),10,12,16,18-nonaen-12-yl]pyrrolidine-2-carboxamide bis(trifluoroacetate)], the IC50 in assay [1] (setting [6]) was determined as 32 nM; in assay [2] (setting [7]), 26 nM; in assay [3] (setting [8]) it was 14 nM; on TYK2, 15 nM. Moreover, the “ALK % of inhibition” value in assay [4] (setting [9]) worked out at 45%.
With `CN(Cc1ccc2cc1CCc1cncc(c1)Nc1ncc(Cl)c(n1)N2)CC1CCN(C(=O)c2ccno2)CC1` [Example B345, 1-[6-Chloro-2,4,8,18,22-pentaazatetracyclo[14.3.1.1(3,7).1(9,13)]docosa-1(20),3(22),4,6,9(21),10,12,16,18-nonaen-12-yl]-N-{[1-(isoxazol-5-ylcarbonyl)piperidin-4-yl]methyl}-N-methylmethanamine tris(trifluoroacetate)], the IC50 in assay [1] (Table B1) is 17 nM; in assay [2] (Table B1) it was 179 nM; in assay [3] (Table B1), > 400 nM; on TYK2 (Table B1), 98 nM. Moreover, the “ALK % of inhibition” value in assay [4] (setting [10]) was 40%.
As for `CSc1ccccc1NC(=O)Nc1ccc2cc1CCc1cccc(c1)Nc1ncc(Cl)c(n1)N2` [Example B107, N-[6-Chloro-2,4,8,22-tetraazatetracyclo[14.3.1.1(3,7).1(9,13)]docosa-1(20), 3(22),4,6,9(21),10,12,16,18-nonaen-12-yl]-N′-[2-(methylthio)phenyl]urea trifluoroacetate], the IC50 was found to be 0.62 nM in assay [1] (Table B1), 2.3 nM in assay [2] (Table B1), 16 nM in assay [3] (Table B1) and 6.8 nM on TYK2 (Table B1). Further, in assay [4] (setting [11]), the “ALK % of inhibition” value is recorded as 9.3%.
Consider `OCc1cc2cc(c1)Nc1nc(ncc1Cl)Nc1cccc(c1)CC2` [Example B24, [6-Chloro-2,4,8,22-tetraazatetracyclo[14.3.1.1(3,7).1(9,13)]docosa-1(20),3(22),4,6,9(21),10,12,16,18-nonaen-11-yl]methanol trifluoroacetate], for which the IC50 in assay [1] (Table B1) stood at 14 nM; in assay [2] (Table B1), 2.3 nM; in assay [3] (Table B1), 5.8 nM; at TYK2 (Table B1), 18 nM; in assay [4] (setting [5]), 781 nM.
As for `Cc1ncoc1C(=O)N1CCC(CC(=O)Nc2ccc3cc2CCc2cncc(c2)Nc2ncc(Cl)c(n2)N3)CC1` [Example A132, N-[6-Chloro-2,4,8,18,22-pentaazatetracyclo[14.3.1.1(3,7).1(9,13)]docosa-1(20),3(22),4,6,9(21),10,12,16,18-nonaen-12-yl]-2-{1-[(4-methyl-1,3-oxazol-5-yl)carbonyl]piperidin-4-yl}acetamide bis(trifluoroacetate)], the IC50 in assay [1] (setting [6]) was 7.9 nM; in assay [2] (setting [7]), 18 nM; in assay [3] (setting [8]), 248 nM; on TYK2, 17 nM. For the same molecule, in assay [4] (setting [9]), the “ALK % of inhibition” value was determined as 23%.
